According to patent US5137906A, “Treatment of central nervous system disorders with benzimidazole angiotensin-II receptor antagonists” (E. I. Du Pont de Nemours and Company, priority 1990, dated 1992):
Entries after “also recorded” stand apart in the source; their conditions may differ.

Legend:
[1] = tested on: AII binding sites in the brain; assay: binding of AII antagonists to sections of brain slices; settings: in words
[2] = tested on: AII receptor subtype-1 (AII-1); settings: cited from earlier work
[3] = tested on: AII receptor subtype-2 (AII-2); settings: cited from earlier work
[4] = tested on: renin-induced disruption of passive avoidance retention; assay: renin-disrupted passive avoidance retention; format: in vivo, male Sprague-Dawley rats; settings: for protection against / prevention of renin-induced amnesia: co-administered with renin IVT
Experimental: Experimentally naive male Sprague-Dawley rats 100 to 125 days old (Charles River Breeding Laboratories, Kingston, N.Y.), weighing between 175 to 200 gm were used. The animals were housed four per cage (45.0 L×20.0 H×26.0 W cm) with free access to food and water. They were maintained on a 12 h light/dark cycle (lights on 0600 h) and at a room temperature of 22°±1° C. with relative humidity of 50±10%.
The experimental sessions were conducted in a two-compartment passive avoidance box. One compartment, made of clear plastic with a perforated clear plastic floor, measured 21(L)×24.5(H)×17(W) cm and was illuminated with a 60 watt incandescent light bulb placed 36 cm above the floor. The other compartment, made of black plastic, measured 30.5 (L)×20.3 (H)×21.5 (W) cm with a floor made of 4 mm stainless steel rods spaced 1.2 cm apart. A grid floor shocker (Coulbourn Instruments) was connected to the steel rods and provided scrambled footshock. The two compartments were separated by a solenoid-operated slide door (Lafayette Instrument Co., Lafayette, Ind.). An electronic counter (Coulbourn Instruments), triggered by the opening or closing of the slide door, recorded acquisition and retention latencies (latencies were defined as the time it took an animal to enter the dark compartment).
Passive avoidance training began by placing the rat into the clear compartment of the two-compartment passive avoidance box. Following a 10 sec delay, the slide door for the dark compartment was raised. Once the rat moved completely into the dark compartment (all four paws on the shock grid floor) the slide door was lowered, and after a 10 sec. delay, a 1.0 mA shock was applied to the grid floor for three sec. A second three s shock was delivered after an additional 10 sec delay. The rats were immediately removed from the dark compartment and returned to their home cage. A retention test was given 24 h later. It proceeded in the same manner as the training session except that no shock was applied to the grid floor when the rats were provided access to the dark compartment for a maximum of 300 sec.
Doses are expressed as the free base weight of each compound.

uphill avoidance = settings: in words; 30 mg/kg PO, acute; cited from earlier work
[5] = tested on: scopolamine-induced amnesia of a PA response; settings: in words; 1, 3 and 10 mg/kg PO three times per day; cited from earlier work
[6] = tested on: scopolamine-induced impairment of eight arm radial maze performance; settings: in words; 3 mg/kg IP; cited from earlier work
[7] = tested on: ACh in the striatum and hypothalamus; settings: in words; acute or repeated administration; cited from earlier work
avoidance learning = settings: in words, cited from earlier work
[8] = tested on: light/dark habituation performance; settings: in words; subchronic treatment; cited from earlier work
[9] = tested on: anticholinergic scopolamine-induced disruption of performance; settings: in words; daily treatment; cited from earlier work
[10] = tested on: passive avoidance (PA) response; settings: in words; injected into dorsal neostriatum; cited from earlier work
[11] = tested on: release of ACh in entorhinal cortex from rat brain; settings: in words; cited from earlier work
[12] = tested on: AII in cerebrospinal fluid (CSF); settings: after renin into lateral ventricle; increased from 40; cited from earlier work
[13] = compound 10 μg/5 μL IVT + renin 1.0 μg/5 μL IVT
[14] = compound 30 μg/5 μL IVT + renin 1.0 μg/5 μL IVT
[15] = compound 100 μg/5 μL IVT + renin 1.0 μg/5 μL IVT

In the case of `O[C@H](CS)[C@H](O)CS` (racemic) [DTT, dithiothreitol], the “sensitivity of AII binding sites in the brain, minor clusters (AII-1 receptors)” value ([1]; AII-1) is listed as “DTT-sensitive”, the “sensitivity of the majority of AII binding sites in the brain (AII-2 receptors)” value [1] is listed as “DTT-sensitive” and the “inactivation of AII-1 receptor by DTT” value ([2]; in words) is listed as “particularly sensitive to inactivation”. For the same molecule, the “inactivation of AII-2 receptor by DTT” value ([3]; in words) was “resistant”.

In the case of `CCCc1nc(C(F)(F)F)c(C(=O)O)n1Cc1ccc(-c2ccccc2-c2nnn[nH]2)cc1` [Compound C, 2-n-propyl-1-[(2'-(1H-tetrazol-5-yl)biphenyl-4-yl)methyl]-4-trifluoromethylimidazole-5-carboxylic acid], the “Median Retention Latency” value [4, 13] is reported as 264 s, the “Median Retention Latency” value [4, 14] is reported as 300 s and the “Median Retention Latency” value [4, 15] is reported as 34.5 s. For the same molecule, the “protection against / prevention of renin-induced amnesia” value (“protection against / prevention” for short) ([4]; in words) was “protected against the amnesia”.

With `CCCc1nc(C(F)(F)F)c(CO)n1Cc1ccc(-c2ccccc2-c2nnn[nH]2)cc1` [Compound D, 2-n-propyl-5-hydroxymethyl-1-[(2'-(1H-tetrazol-5-yl)biphenyl-4-yl)methyl]-4-trifluoromethylimidazole] the “Median Retention Latency” value [4, 14] was 242 s, the “Median Retention Latency” value [4, 15] was 10 s and the “protection against / prevention” value ([4]; in words) was “protected against the amnesia”.

In the case of `Cc1cc(Cn2cnc3c2CC(C(=O)O)N(C(=O)C(c2ccccc2)c2ccccc2)C3)ccc1N` (stereo not drawn) [EXP655, 1-(4-amino-3-methylphenyl)methyl-5-diphenylacetyl-4,5,6,7-tetrahydro-1H-imidazo[4,5-c]pyridine-6-carboxylic acid], the “sensitivity of the majority of AII binding sites in the brain (AII-2 receptors)” value [1] is reported as “EXP655-sensitive”, the “Median Retention Latency” value ([4]; compound 0.1 μg/5 μL IVT + renin 1.0 μg/5 μL IVT) is reported as 19 s and the “Median Retention Latency” value ([4]; compound 0.3 μg/5 μL IVT + renin 1.0 μg/5 μL IVT) is reported as 22 s. The “Median Retention Latency” value ([4]; compound 1.0 μg/5 μL IVT + renin 1.0 μg/5 μL IVT) was 15 s, the “Median Retention Latency” value ([4]; compound 3.0 μg/5 μL IVT + renin 1.0 μg/5 μL IVT) was 29 s and the “Median Retention Latency” value [4, 13] was 15 s. For the same molecule, the “Median Retention Latency” value [4, 14] was 67 s, the “Median Retention Latency” value [4, 15] was 16 s and the “protection against / prevention” value ([4]; in words) was “much less effective in preventing the amnesia”. For the same molecule, the IC50 ([2]; AII-1 site, rat adrenal cortex, Chiu et al. 1989, read-out: inhibitory constant IC50 value) was ~300 µM, the “affinity/specificity for the AII-1 site” value ([2]; in words, rat adrenal cortex) was “very low affinity” and the IC50 ([3]; AII-2 site, rat adrenal cortex, Chiu et al. 1989, read-out: inhibitory constant IC50 value) was ~0.1 µM.

In the case of `CCOC(=O)C(CCc1ccccc1)NC(C)C(=O)N1CC2(CC3CCC2CC3)CC1C(=O)O` (stereo not drawn) [Hoe 288], the “performance during retention testing, uphill avoidance” value (uphill avoidance) is listed as “improved performance during retention testing”, the “effect on scopolamine-induced PA amnesia” value [5] is listed as “partially reversed the amnesia” and the “effect on muscarinic receptor blockade impairment of performance” value [6] is listed as “partially antagonized the effects of muscarinic receptor blockade on performance”. The “change in ACh in the striatum and hypothalamus” value [7] was “significant decrease in ACh in the striatum and hypothalamus”.

For `C[C@H](CS)C(=O)N1CCC[C@H]1C(=O)O` [captopril], the “prevention of renin-induced amnesia in PA task by IVT captopril” value ([4]; in words, own laboratory, captopril IVT) is listed as “prevented”, the “effect on renin-induced avoidance disruption” value (avoidance learning; IVT prior to renin injection) is listed as “prevented the renin-induced avoidance disruption” and the “rate of acquisition of light/dark habituation performance” value [8] is listed as “increased the rate of acquisition”. For the same molecule, the “effect on scopolamine-induced disruption of performance” value [9] was “prevented”.

In the case of `NC(=O)[C@@H]1CCCN1C(=O)[C@H](Cc1cnc[nH]1)NC(=O)[C@@H]1CCC(=O)N1` [thyrotropin releasing hormone], the “effect on retention of a PA response” value [10] is listed as “no effect”.

For “Angiotensin II (DRVYIHPF; Angiotensin-2; UniProt P01019 25-32, looked up) [AII]”, the “effect on retention of a PA response” value [10] is listed as “disruption in retention of a PA response”, the “effect on basal levels of ACh release” value [11] is listed as “without effects on basal levels” and the “effect on potassium-stimulated release of ACh” value [11] is listed as “reduced potassium-stimulated release of ACh”.

For “[1-sarcosine, 8-threonine]angiotensin II”, the “antagonism of AII effect on ACh release” value [11] is given as “antagonized”.

In the case of lysine-8-vasopressin, the “effect on retention of a PA response” value [10] is given as “no effect”.

B1: renin: Renin (Sigma Chemicals), a stimulator of endogenous AII biosynthesis (protein, UniProt P00797 67-406, looked up)
Renin: LTLGNTTSSVILTNYMDTQYYGEIGIGTPPQTFKVVFDTGSSNVWVPSSKCSRLYTACVYHKLFDASDSSSYKHNGTELTLRYSTGTVSGFLSQDIITVGGITVTQMFGEVTEMPALPFMLAEFDGVVGMGFIEQAIGRVTPIFDNIISQGVLKEDVFSFYYNRDSENSQSLGGQIVLGGSDPQHYEGNFHYINLIKTGVWQIQMKGVSVGSSTLLCEDGCLALVDTGASYISGSTSSIEKLMEALGAKKRLFDYVVKCNEGPTLPDISFHLGGKEYTLTSADYVFQESYSSKKLCTLAIHAMDIPPPTGPTWALGATFIRKFYTEFDRRNNRIGFALAR
For B1, the “Median Retention Latency” value ([4]; Table 1, renin 0.1 μg/5 μL IVT) was 254 s, the “Median Retention Latency” value ([4]; Table 1, renin 0.5 μg/5 μL IVT) was 117 s and the “Median Retention Latency” value ([4]; Table 1, renin 1.0 μg/5 μL IVT) was 27 s. For the same molecule, the “Median Retention Latency” value ([4]; Table 1, renin 3.0 μg/5 μL IVT) was 56.5 s, the “Median Retention Latency” value ([4]; Table 1, renin 5.0 μg/5 μL IVT) was 17 s and the “Median Retention Latency” value ([4]; Table 2, renin 1.0 μg/5 μL IVT, Compound C 0 (renin-alone group)) was 48 s. For the same molecule, the “Median Retention Latency” value ([4]; Table 3, renin 1.0 μg/5 μL IVT, Compound D 0 (renin-alone group)) was 32 s, the “Median Retention Latency” value ([4]; Table 4, renin 1.0 μg/5 μL IVT, EXP655 0 (renin-alone group)) was 15.5 s and the “memory deficit / amnesia in PA task” value ([4]; in words, renin IVT) was “produces a reliable memory deficit in rats; also recorded: dose-related amnesia”. For the same molecule, the “effect on avoidance learning” value (avoidance learning; renin into lateral ventricle (IVT)) was “disruption of avoidance learning” and the “AII in cerebrospinal fluid” value [12] was “about 5000 fmol per mL”.
